System: HBV rcDNA in HepDE19 cells
Assay: HepDE19 assay with bDNA quantitation of HBV rcDNA
Format: cell-based, hepatitis B virus
Conditions: Hepatitis B virus, HepDE19, HepDE19 assay, inhibition of rcDNA formation, bDNA quantitation; read-out: DE-19bDNA EC50

**Q.** `CN(C(=O)c1ccc(C(F)(F)F)nc1)[C@@H]1COCc2[nH]c(=O)c3cc(F)c(F)cc3c21` [Compound 73, (S)-N-(8,9-Difluoro-6-oxo-1,4,5,6-tetrahydro-2H-pyrano[3,4-c]isoquinolin-1-yl)-N-methyl-6-(trifluoromethyl)nicotinamide] was tested. Which EC50 did it give?
**A.** 0.12 µM

**Q.** How did the EC50 turn out when `CN(C(=O)c1ccc(C(F)(F)F)c(F)c1)[C@@H]1COCc2[nH]c(=O)c3cc(F)c(F)cc3c21` [Compound 74, (S)-N-(8,9-Difluoro-6-oxo-1,4,5,6-tetrahydro-2H-pyrano[3,4-c]isoquinolin-1-yl)-3-fluoro-N-methyl-4-(trifluoromethyl)benzamide] was run?
**A.** 0.01 µM

**Q.** Which EC50 does the source give for `CN(C(=O)c1ccc(Cl)c(F)c1)[C@@H]1COCc2[nH]c(=O)c3cc(F)c(F)cc3c21` [Compound 75, (S)-4-Chloro-N-(8,9-difluoro-6-oxo-1,4,5,6-tetrahydro-2H-pyrano[3,4-c]isoquinolin-1-yl)-3-fluoro-N-methylbenzamide] here?
**A.** 0.02 µM

**Q.** For `CN(C(=O)c1cc(F)c(F)c(F)c1)[C@@H]1COCc2[nH]c(=O)c3cc(F)c(F)cc3c21` [Compound 76, (S)-N-(8,9-Difluoro-6-oxo-1,4,5,6-tetrahydro-2H-pyrano[3,4-c]isoquinolin-1-yl)-3,4,5-trifluoro-N-methylbenzamide], which EC50 is on record?
**A.** 0.09 µM

**Q.** `CN(C(=O)c1cncc(F)c1)[C@@H]1COCc2[nH]c(=O)c3cc(F)c(F)cc3c21` [Compound 83, (S)-N-(8,9-Difluoro-6-oxo-1,4,5,6-tetrahydro-2H-pyrano[3,4-c]isoquinolin-1-yl)-5-fluoro-N-methylnicotinamide] was tested. Which EC50 did it give?
**A.** 7 µM

**Q.** `CN(C(=O)c1cncc(Cl)c1)[C@@H]1COCc2[nH]c(=O)c3cc(F)c(F)cc3c21` [Compound 84, (S)-5-Chloro-N-(8,9-difluoro-6-oxo-1,4,5,6-tetrahydro-2H-pyrano[3,4-c]isoquinolin-1-yl)-N-methylnicotinamide] was tested. Which EC50 did it give?
**A.** 5.7 µM

**Q.** For `CN(C(=O)c1ccnc(F)c1)[C@@H]1COCc2[nH]c(=O)c3cc(F)c(F)cc3c21` [Compound 85, (S)-N-(8,9-Difluoro-6-oxo-1,4,5,6-tetrahydro-2H-pyrano[3,4-c]isoquinolin-1-yl)-2-fluoro-N-methylisonicotinamide], which EC50 is on record?
**A.** 0.63 µM

**Q.** `CN(C(=O)c1cccc(C(F)F)c1)[C@@H]1COCc2[nH]c(=O)c3cc(F)c(F)cc3c21` [Compound 86, (S)-N-(8,9-Difluoro-6-oxo-1,4,5,6-tetrahydro-2H-pyrano[3,4-c]isoquinolin-1-yl)-3-(difluoromethyl)-N-methylbenzamide] was tested. Which EC50 did it give?
**A.** 0.03 µM

**Q.** For `CN(C(=O)[C@@H](O)Cc1ccccc1)[C@@H]1COCc2[nH]c(=O)c3cc(F)c(F)cc3c21` [Compound 87, (S)-N-((S)-8,9-Difluoro-6-oxo-1,4,5,6-tetrahydro-2H-pyrano[3,4-c]isoquinolin-1-yl)-2-hydroxy-N-methyl-3-phenylpropanamide], which EC50 is on record?
**A.** 3.2 µM

**Q.** How did the EC50 turn out when `CN(C(=O)[C@H](O)Cc1ccccc1)[C@@H]1COCc2[nH]c(=O)c3cc(F)c(F)cc3c21` [Compound 88, (R)-N-((S)-8,9-Difluoro-6-oxo-1,4,5,6-tetrahydro-2H-pyrano[3,4-c]isoquinolin-1-yl)-2-hydroxy-N-methyl-3-phenylpropanamide] was run?
**A.** 0.48 µM

**Q.** How did the EC50 turn out when `CN(C(=O)c1ccccc1)[C@@H]1COCc2[nH]c(=O)c3cc(F)c(F)cc3c21` [Compound 91, (S)-N-(8,9-Difluoro-6-oxo-1,4,5,6-tetrahydro-2H-pyrano[3,4-c]isoquinolin-1-yl)-N-methylbenzamide] was run?
**A.** 1.01 µM

**Q.** How did the EC50 turn out when `CN(C(=O)c1ccc(F)c(F)c1)[C@@H]1COCc2[nH]c(=O)c3cc(F)c(F)cc3c21` [Compound 92, (S)-N-(8,9-Difluoro-6-oxo-1,4,5,6-tetrahydro-2H-pyrano[3,4-c]isoquinolin-1-yl)-3,4-difluoro-N-methylbenzamide] was run?
**A.** 0.28 µM

**Q.** With `CN(C(=O)[C@@](C)(O)c1ccccc1)[C@@H]1COCc2[nH]c(=O)c3cc(F)c(F)cc3c21` [Compound 93, (S)-N-((S)-8,9-Difluoro-6-oxo-1,4,5,6-tetrahydro-2H-pyrano[3,4-c]isoquinolin-1-yl)-2-hydroxy-N-methyl-2-phenylpropanamide] as the molecule, how does the EC50 read?
**A.** 12 µM

**Q.** `CN(C(=O)[C@](C)(O)c1ccccc1)[C@@H]1COCc2[nH]c(=O)c3cc(F)c(F)cc3c21` [Compound 94, (R)-N-((S)-8,9-Difluoro-6-oxo-1,4,5,6-tetrahydro-2H-pyrano[3,4-c]isoquinolin-1-yl)-2-hydroxy-N-methyl-2-phenylpropanamide] was tested. Which EC50 did it give?
**A.** 3.2 µM

**Q.** `CN(C(=O)[C@@H](O)c1ccccc1)[C@@H]1COCc2[nH]c(=O)c3cc(F)c(F)cc3c21` [Compound 95, (S)-N-((S)-8,9-Difluoro-6-oxo-1,4,5,6-tetrahydro-2H-pyrano[3,4-c]isoquinolin-1-yl)-2-hydroxy-N-methyl-2-phenylacetamide] was tested. Which EC50 did it give?
**A.** 24 µM

**Q.** How did the EC50 turn out when `CN(C(=O)[C@H](O)c1ccccc1)[C@@H]1COCc2[nH]c(=O)c3cc(F)c(F)cc3c21` [Compound 96, (R)-N-((S)-8,9-Difluoro-6-oxo-1,4,5,6-tetrahydro-2H-pyrano[3,4-c]isoquinolin-1-yl)-2-hydroxy-N-methyl-2-phenylacetamide] was run?
**A.** 10 µM

**Q.** For `CN(C(=O)c1cc2c(F)c(F)c(F)cc2[nH]1)[C@@H]1COCc2[nH]c(=O)c3cc(F)c(F)cc3c21` [Compound 97, (S)-N-(8,9-Difluoro-6-oxo-1,4,5,6-tetrahydro-2H-pyrano[3,4-c]isoquinolin-1-yl)-4,5,6-trifluoro-N-methyl-1H-indole-2-carboxamide], which EC50 is on record?
**A.** 0.01 µM

**Q.** `CN(C(=O)c1ccc(C(F)(F)F)cc1)[C@@H]1COCc2[nH]c(=O)c3cc(F)c(F)cc3c21` [Compound 98, (S)-N-(8,9-Difluoro-6-oxo-1,4,5,6-tetrahydro-2H-pyrano[3,4-c]isoquinolin-1-yl)-N-methyl-4-(trifluoromethyl)benzamide] was tested. Which EC50 did it give?
**A.** 0.01 µM

**Q.** `CN(C(=O)c1ccc(C#N)c(F)c1)[C@@H]1COCc2[nH]c(=O)c3cc(F)c(F)cc3c21` [Compound 100, (S)-4-Cyano-N-(8,9-difluoro-6-oxo-1,4,5,6-tetrahydro-2H-pyrano[3,4-c]isoquinolin-1-yl)-3-fluoro-N-methylbenzamide] was tested. Which EC50 did it give?
**A.** 0.04 µM

**Q.** Which EC50 does the source give for `CN(C(=O)c1ccc(F)c(C(F)F)c1)[C@@H]1COCc2[nH]c(=O)c3cc(F)c(F)cc3c21` [Compound 109, (S)-N-(8,9-Difluoro-6-oxo-1,4,5,6-tetrahydro-2H-pyrano[3,4-c]isoquinolin-1-yl)-3-(difluoromethyl)-4-fluoro-N-methylbenzamide] here?
**A.** 0.02 µM

**Q.** For `CN(C(=O)c1ccc(C(F)F)c(F)c1)[C@@H]1COCc2[nH]c(=O)c3cc(F)c(F)cc3c21` [Compound 110, (S)-N-(8,9-Difluoro-6-oxo-1,4,5,6-tetrahydro-2H-pyrano[3,4-c]isoquinolin-1-yl)-4-(difluoromethyl)-3-fluoro-N-methylbenzamide], which EC50 is on record?
**A.** 0.01 µM

**Q.** How did the EC50 turn out when `CN(C(=O)c1ccc(C(F)F)cc1)[C@@H]1COCc2[nH]c(=O)c3cc(F)c(F)cc3c21` [Compound 111, (S)-N-(8,9-Difluoro-6-oxo-1,4,5,6-tetrahydro-2H-pyrano[3,4-c]isoquinolin-1-yl)-4-(difluoromethyl)-N-methylbenzamide] was run?
**A.** 0.02 µM

**Q.** For `CN(C(=O)c1ccc(F)c(Cl)c1)[C@@H]1COCc2[nH]c(=O)c3cc(F)c(F)cc3c21` [Compound 112, (S)-3-Chloro-N-(8,9-difluoro-6-oxo-1,4,5,6-tetrahydro-2H-pyrano[3,4-c]isoquinolin-1-yl)-4-fluoro-N-methylbenzamide], which EC50 is on record?
**A.** 0.04 µM

**Q.** How did the EC50 turn out when `CN(C(=O)c1nc2ccccc2s1)[C@@H]1COCc2[nH]c(=O)c3cc(F)c(F)cc3c21` [Compound 123, (S)-N-(8,9-Difluoro-6-oxo-1,4,5,6-tetrahydro-2H-pyrano[3,4-c]isoquinolin-1-yl)-N-methylbenzo[d]thiazole-2-carboxamide] was run?
**A.** 1.5 µM

**Q.** How did the EC50 turn out when `CN(C(=O)c1nc2ccccc2o1)[C@@H]1COCc2[nH]c(=O)c3cc(F)c(F)cc3c21` [Compound 124, (S)-N-(8,9-Difluoro-6-oxo-1,4,5,6-tetrahydro-2H-pyrano[3,4-c]isoquinolin-1-yl)-N-methylbenzo[d]oxazole-2-carboxamide] was run?
**A.** 1.1 µM

**Q.** Which EC50 does the source give for `CN(C(=O)c1cc(C(F)(F)F)n[nH]1)[C@@H]1COCc2[nH]c(=O)c3cc(F)c(F)cc3c21` [Compound 125, (S)-N-(8,9-Difluoro-6-oxo-1,4,5,6-tetrahydro-2H-pyrano[3,4-c]isoquinolin-1-yl)-N-methyl-3-(trifluoromethyl)-1H-pyrazole-5-carboxamide] here?
**A.** 0.15 µM

**Q.** `CN(C(=O)c1cc(-c2ccc(F)cc2)n[nH]1)[C@@H]1COCc2[nH]c(=O)c3cc(F)c(F)cc3c21` [Compound 126, (S)-N-(8,9-Difluoro-6-oxo-1,4,5,6-tetrahydro-2H-pyrano[3,4-c]isoquinolin-1-yl)-3-(4-fluorophenyl)-N-methyl-1H-pyrazole-5-carboxamide] was tested. Which EC50 did it give?
**A.** 21 µM

**Q.** With `CN(C(=O)c1cccc(F)c1)[C@@H]1COCc2[nH]c(=O)c3cc(F)c(F)cc3c21` [Compound 127, (S)-N-(8,9-Difluoro-6-oxo-1,4,5,6-tetrahydro-2H-pyrano[3,4-c]isoquinolin-1-yl)-3-fluoro-N-methylbenzamide] as the molecule, how does the EC50 read?
**A.** 0.38 µM

**Q.** `CN(C(=O)c1cccc(Cl)c1)[C@@H]1COCc2[nH]c(=O)c3cc(F)c(F)cc3c21` [Compound 128, (S)-3-Chloro-N-(8,9-difluoro-6-oxo-1,4,5,6-tetrahydro-2H-pyrano[3,4-c]isoquinolin-1-yl)-N-methylbenzamide] was tested. Which EC50 did it give?
**A.** 0.09 µM

**Q.** For `CN(C(=O)c1cccc(Br)c1)[C@@H]1COCc2[nH]c(=O)c3cc(F)c(F)cc3c21` [Compound 129, (S)-3-Bromo-N-(8,9-difluoro-6-oxo-1,4,5,6-tetrahydro-2H-pyrano[3,4-c]isoquinolin-1-yl)-N-methylbenzamide], which EC50 is on record?
**A.** 0.09 µM

Same assay, conditions: Hepatitis B virus, HepDE19, read-out: DE-19bDNA EC50 (μM)

**Q.** Which EC50 does the source give for `CN(C(=O)c1ccc(Cl)cc1)[C@@H]1COCc2[nH]c(=O)c3cc(F)c(F)cc3c21` [Compound 99, (S)-4-Chloro-N-(8,9-difluoro-6-oxo-1,4,5,6-tetrahydro-2H-pyrano[3,4-c]isoquinolin-1-yl)-N-methylbenzamide] here?
**A.** 0.02 µM
